This note sets out measurements from US20240002375A1, “2-(INDAZOL-5-YL)-6-(PIPERIDIN-4-YL)-1,7-NAPHTHYRIDINE DERIVATIVES AND RELATED COMPOUNDS AS MODULATORS FOR SPLICING NUCLEIC ACIDS AND FOR THE TRE” (REMIX THERAPEUTICS INC., priority 2020, published 2024).

Assay type in all cases: cell-based
One test has as its system SMN2 CJ mRNA. The experiment in a line: Gene panel canonical junction qPCR splicing assay, SMN2. The following applies: Table 4, read-out: SMN2 IC50 (decrease in CJ mRNA levels). On the procedure: (§1) Compounds described herein were used to modulate RNA transcript abundance in cells. The expression of a target mRNA was measured by detecting the formation of an exon-exon junction in the canonical transcript (CJ). A compound mediated exon-inclusion event was detected by observing an increase in formation of a new junction with an alternative exon (AJ). Real-time qPCR assays were used to detect these splicing switches and interrogate the potency of various compounds towards different target genes. A high-throughput real time quantitative PCR (RT-qPCR) assay was developed to measure these two isoforms of the mRNA (CJ and AJ) for an exemplary gene, HTT, together with a control housekeeping gene, GAPDH or GUSB or PPIA, used for normalization. Briefly, the A673 or K562 cell line was treated with various compounds described herein (e.g., compounds of Formula (I) or (II)). After treatment, the levels of the HTT mRNA targets were determined from each sample of cell lysate by cDNA synthesis followed by qPCR. The data analysis was performed by first determining the ΔCt vs the housekeeper gene. This ΔCt was then normalized against the DMSO control (ΔΔCt) and converted to RQ (relative quantification) using the 2^(−ΔΔCt) equation. The RQ were then converted to a percentage response by arbitrarily setting an assay window of 3.5 ΔCt for HTT-CJ and an assay window of 9 ΔCt for HTT-AJ. […] The percentage response was then fitted to the 4 parametric logistic equation to evaluate the concentration dependence of compound treatment. The increase in AJ mRNA is reported as AC50 (compound concentration having 50% response in AJ increase) while the decrease in CJ mRNA levels is reported as IC50 (compound concentration having 50% response in CJ decrease). Additional studies were carried out for a larger panel of genes using the protocol provided above. The junction between flanking upstream and downstream exons was used to design canonical junction qPCR assays. At least one of the forward primer, reverse primer or the CY5-labeled 5′ nuclease probe (with 3′ quencher such as ZEN/Iowa Black FQ) was designed to overlap with the exon junction to capture the CJ mRNA transcript. BLAST was used to confirm the specificity of the probeset and parameters such as melting temperature, GC content, amplicon size, and primer dimer formation are considered during their design. Data for the decrease in CJ mRNA levels for three exemplary genes (HTT, SMN2, and Target C) analyzed in this panel are reported as IC50 (compound concentration having 50% response in CJ decrease).
A general note: Quantitative PCR measures a nucleic acid by following its amplification.

For another test, the system named is HTT CJ mRNA. The experiment in a line: Gene panel canonical junction qPCR splicing assay, HTT. The following applies: Table 4, read-out: HTT IC50 (decrease in CJ mRNA levels). On the procedure: as §1
The test system of a further test is Target C CJ mRNA. Put plainly: Gene panel canonical junction qPCR splicing assay, Target C. The following applies: Table 4, read-out: Target C IC50 (decrease in CJ mRNA levels). On the procedure: as §1
A further test concerns HTT mRNA. The experiment in a line: Splicing assay (RT-qPCR) of HTT mRNA alternative junction (AJ) and canonical junction (CJ). The following applies: A673 or K562 cells, 24 hours; for IC50: decrease in CJ mRNA, read-out: HTT CJ IC50; for AC50: increase in AJ mRNA, read-out: HTT AJ AC50. Here is the method:
Compounds described herein were used to modulate RNA transcript abundance in cells. The expression of a target mRNA was measured by detecting the formation of an exon-exon junction in the canonical transcript (CJ). A compound mediated exon-inclusion event was detected by observing an increase in formation of a new junction with an alternative exon (AJ). Real-time qPCR assays were used to detect these splicing switches and interrogate the potency of various compounds towards different target genes. A high-throughput real time quantitative PCR (RT-qPCR) assay was developed to measure these two isoforms of the mRNA (CJ and AJ) for an exemplary gene, HTT, together with a control housekeeping gene, GAPDH or GUSB or PPIA, used for normalization. Briefly, the A673 or K562 cell line was treated with various compounds described herein (e.g., compounds of Formula (I) or (II)). After treatment, the levels of the HTT mRNA targets were determined from each sample of cell lysate by cDNA synthesis followed by qPCR.
Materials: • Cells-to-CT 1-step kit: ThermoFisher A25602, Cells-to-CT lysis reagent: ThermoFisher 4391851C, TagMan™ Fast Virus 1-Step Master Mix: ThermoFisher 4444436 • GAPDH: VIC-PL, ThermoFisher 4326317E (Assay: Hs99999905_ml)—used for K562/suspension cell lines • GUSB: VIC-PL, ThermoFisher 4326320E (Assay: Hs99999908 ml)—used for K562/suspension cell lines • PPIA: VIC-PL, ThermoFisher 4326316E (Assay: Hs99999904 ml)—used for A673/adherent cell lines
The A673 cell line was cultured in DMEM with 10% FBS. Cells were diluted with full growth media and plated in a 96-well plate (15,000 cells in 100 ul media per well). The plate was incubated at 37° C. with 5% CO2 for 24 hours to allow cells to adhere. An 11-point 3-fold serial dilution of the compounds was made in DMSO then diluted in media in an intermediate plate. Compounds were transferred from the intermediate plate to the cell plate with the top dose at a final concentration of 10 uM in the well. Final DMSO concentration was kept at or below 0.25%. The cell plate was returned to the incubator at 37° C. with 5% CO2 for an additional 24 hours.
The K562 cell line was cultured in IMDM with 10% FBS. For K562, cells were diluted with full growth media and plated in either a 96-well plate (50,000 cells in 50 uL media per well) or a 384-well plate (8,000-40,000 cells in 45 uL media per well). An 11-point 3-fold serial dilution of the compounds were made in DMSO then diluted in media in an intermediate plate. Compound was transferred from the intermediate plate to the cell plate with the top dose at a final concentration of 10 uM in the well. Final DMSO concentration was kept at or below 0.25%. Final volume was 100 uL for 96-well plate and 50 uL for 384-well plate. The cell plate was then placed in an incubator at 37° C. with 5% CO2 for 24 hours.
The cells were then gently washed with 50 uL-100 uL cold PBS before proceeding to addition of lysis buffer. 30 uL-50 uL of room temperature lysis buffer with DNAse I (and optionally RNAsin) was added to each well. Cells were shaken/mixed thoroughly at room temperature for 5-10 minutes for lysis to take place and then 3 uL-5 uL of room temperature stop solution was added and wells were shaken/mixed again. After 2-5 minutes, the cell lysate plate was transferred to ice for RT-qPCR reaction setup. The lysates could also be frozen at −80° C. for later use.
In some cases, a direct lysis buffer was used. An appropriate volume of 3X lysis buffer (10 mM Tris, 150 mM NaCl, 1.5%-2.5% Igepal and 0.1-1 U/uL RNAsin, pH 7.4) was directly added to either K562 or A673 cells in media and mixed by pipetting 3 times. The plates were then incubated at room temperature with shaking/rocking for 20-50 minutes to allow for lysis to take place. After this time, the cell lysate plate was transferred to ice to set up for the RT-qPCR reactions. The lysates could also be frozen at −80° C. for later use. […]

The structures appear in SMILES notation.

`Cc1c(O)c(-c2ccc3nc(N4CCC(NC5(C)CC5)C4)ccc3n2)cc2cn(C)nc12` (racemic) [Compound 224, 2,7-dimethyl-5-(6-{3-[(1-methylcyclopropyl)amino]pyrrolidin-1-yl}-1,5-naphthyridin-2-yl) indazol-6-ol]: the IC50 in the test on SMN2 CJ mRNA, in the test on HTT CJ mRNA, with Target C CJ mRNA and with HTT mRNA was less than 100 nM throughout. In the test on HTT mRNA, the AC50 is less than 100 nM.
For `C[C@H]1C[C@H](c2ccc3nc(-c4cc5cn(C)nc5cc4O)ccc3n2)CCN1` (relative stereo) [Compound 139, 2-methyl-5-[6-[(2S,4R)-2-methylpiperidin-4-yl]-1,5-naphthyridin-2-yl]indazol-6-ol], the IC50 in the test on SMN2 CJ mRNA is less than 100 nM; in the test with HTT CJ mRNA, less than 100 nM; with Target C CJ mRNA, 100 to 1000 nM; with HTT mRNA, less than 100 nM. Also, the AC50 in the test on HTT mRNA is less than 100 nM.
For `C[C@H]1C[C@@H](c2ccc3nc(-c4cc5cn(C)nc5cc4O)ccc3n2)CCN1` (relative stereo) [Compound 140, 2-methyl-5-[6-[(2S,4S)-2-methylpiperidin-4-yl]-1,5-naphthyridin-2-yl]indazol-6-ol], the IC50 in the test with SMN2 CJ mRNA was less than 100 nM; with HTT CJ mRNA, less than 100 nM; in the test with Target C CJ mRNA, 100 to 1000 nM; in the test with HTT mRNA, less than 100 nM. Besides, in the test with HTT mRNA, the AC50 lay in the range of 100 to 1000 nM.
For `Cc1nc2cc(O)c(-c3ccc4nc(N5CC[C@H](NC6CC6)C5)ccc4n3)cc2o1` (single isomer, unassigned) [Compound 211, 6-{6-[3-(cyclopropylamino)pyrrolidin-1-yl]-1,5-naphthyridin-2-yl}-2-methyl-1,3-benzoxazol-5-ol], the IC50 is less than 100 nM with SMN2 CJ mRNA, less than 100 nM with HTT CJ mRNA, 100 to 1000 nM with Target C CJ mRNA and less than 100 nM with HTT mRNA. Also, in the test on HTT mRNA, the AC50 is less than 100 nM.
`Cc1nc2cc(O)c(-c3ccc4nc(N5CC[C@@H](NC6CC6)C5)ccc4n3)cc2o1` (single isomer, unassigned) [Compound 212, 6-{6-[3-(cyclopropylamino)pyrrolidin-1-yl]-1,5-naphthyridin-2-yl}-2-methyl-1,3-benzoxazol-5-ol]: the half-inhibitory concentration (IC50) with SMN2 CJ mRNA was less than 100 nM; in the test with HTT CJ mRNA, less than 100 nM; in the test on Target C CJ mRNA it was 100 to 1000 nM; with HTT mRNA it was less than 100 nM. Further, the AC50 in the test with HTT mRNA is less than 100 nM.
For `Cc1nc2c(C)c(O)c(-c3ccc4nc(N5CCC(NC(C)(C)C)C5)ccc4n3)cc2o1` (single isomer, unassigned) [Compound 214, 6-{6-[3-(tert-butylamino)pyrrolidin-1-yl]-1,5-naphthyridin-2-yl}-2,4-dimethyl-1,3-benzoxazol-5-ol], the IC50 in the test on SMN2 CJ mRNA, in the test on HTT CJ mRNA, in the test on Target C CJ mRNA and in the test on HTT mRNA was less than 100 nM in each case. Further, in the test on HTT mRNA, the AC50 is less than 100 nM.
Turning to `Cc1nc2c(C)c(O)c(-c3ccc4nc(N5CC[C@@H](NC(C)(C)C)C5)ccc4n3)cc2o1` (single isomer, unassigned) [Compound 215, 6-{6-[3-(tert-butylamino)pyrrolidin-1-yl]-1,5-naphthyridin-2-yl}-2,4-dimethyl-1,3-benzoxazol-5-ol], the IC50 in the test on SMN2 CJ mRNA, in the test on HTT CJ mRNA, in the test with Target C CJ mRNA and with HTT mRNA was less than 100 nM throughout. Moreover, the AC50 in the test on HTT mRNA was less than 100 nM.
On to `CN1CCC12CCN(c1ccc3nc(-c4cc5cn(C)nc5cc4O)ccc3n1)C2` (stereo not shown) [Compound 181, 2-methyl-5-(6-{1-methyl-1,6-diazaspiro[3.4]octan-6-yl}-1,5-naphthyridin-2-yl) indazol-6-ol], for which the IC50 in the test on HTT mRNA is 100 to 1000 nM.
As to `Cn1cc2cc(-c3ccc4nc(N5CCC(NC(C)(C)C)C5)ccc4n3)c(F)cc2n1` (stereo not shown) [Compound 183], the IC50 in the test on HTT mRNA is more than 10000 nM.

As usually defined, the IC50 is the concentration that inhibits the measured activity by half. What is called AC50 is the concentration at which the activity in the assay is half-maximal.
